The assay deals with Clostridioides difficile clinical isolate growth, OD600, 24 h. The experiment in a line: inhibitors of Clostridioides difficile proliferation – 4-point retest, confirmation (AID 1224921).

SMILES strings stand for the structures.

The term AC50 denotes the concentration at which the activity in the assay is half-maximal.

For the compound `CO[C@@H](CN(C)Cc1cc(F)ccc1F)[C@H](C)CN(C(=O)Nc1ccc(C(F)(F)F)cc1)[C@@H](C)CO`, the AC50 is 3.71 µM.
With `O=C(C[C@H]1CC[C@H]2[C@@H](COC[C@@H](O)CN2C(=O)Nc2ccc(Cl)c(Cl)c2)O1)NC1CCC1`, the AC50 is 4.29 µM.

Source of the values: PubChem BioAssay AID1224921 (Broad Institute, 2016).
